Data taken from patent publication US12157730B2, “Heteroaryl derivative, method for producing same, and pharmaceutical composition comprising same as effective component” (VORONOI INC., priority 2019, dated 2024).

Molecular target: T1, Ba/F3 cell EGFR Exon20 ins NPH (Homo sapiens, UniProt P00533, INS773NPH)
T1 construct: expressed in transfected cells; host or cells: Ba/F3
Test: Ba/F3 cell proliferation suppression, EGFR Exon20 ins NPH
Format: cell-based
Conditions: GI50 class; Ba/F3 cell line with NPH inserted at Exon20 of EGFR; 72 hours
In short: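 Cells (3000–5000/well) plated 24 h before compound, 12-point 3-fold dilutions at 0.3 nM to 50 um final; Ba/F3 lines grown with 5 ng/ml IL-3. Viability by CellTiter-Glo luminescence after 72 h, growth ratio vs control, GI50 from curves; triplicate.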

Structure (SMILES) | Ba/F3 (NPH) Activity
C=CC(=O)Nc1cc(Nc2cc(N3OCC[C@@H]3c3cc(F)cc(F)c3)ncn2)c(OC)cc1N1CCC(N2C[C@H](C)N(C3CC3)C[C@@H]2C)CC1 [Example 113, N-(2-(4-((2S,5S)-4-cyclopropyl-2,5-dimethylpiperazine-1-yl)piperidine-1-yl)-5-((6-((R)-3-(3,5-difluorophenyl)isoxazolidine-2-yl)pyrimidine-4-yl)amino)-4-methoxyphenyl) acrylamide] | A (GI50 < 50 nM)
C=CC(=O)Nc1cc(Nc2cc(N3OCC[C@@H]3c3cc(F)cc(Cl)c3)ncn2)c(OC)cc1N(C)CCN(C)C [compound 538, N-(5-((6-((R)-3-(3-chloro-5-fluorophenyl)isoxazolidine-2-yl)pyrimidine-4-yl)amino)-2-((2-(dimethylamino)ethyl)(methyl)amino)-4-methoxyphenyl)acrylamide] | A (GI50 < 50 nM)
C=CC(=O)Nc1cc(Nc2cc(N3OCC[C@@H]3c3cc(F)cc(Cl)c3)ncn2)c(OC)cc1N1CCC(N2CCN(C3CC3)[C@H](C)C2)CC1 [Example 158, N-(5-((6-((R)-3-(3-chloro-5-fluorophenyl)isoxazolidine-2-yl)pyrimidine-4-yl)amino)-2-(4-((R)-4-cyclopropyl-3-methylpiperazine-1-yl)piperidine-1-yl)-4-methoxyphenyl) acrylamide] | A (GI50 < 50 nM)
C=CC(=O)Nc1cc(Nc2cc(N3OCC[C@@H]3c3cccc(F)c3)ncn2)c(OC)cc1N1CCC(N2CCN(C3COC3)CC2)CC1 [Example 80, N-(5-((6-((R)-3-(3-fluorophenyl)isoxazolidine-2-yl)pyrimidine-4-yl)amino)-4-methoxy-2-(4-(4-(oxetane-3-yl)piperazine-1-yl)piperidine-1-yl)phenyl) acrylamide] | A (GI50 < 50 nM)
C=CC(=O)Nc1cc(Nc2cc(N3OCC[C@@H]3c3ccc4ccccc4c3)ncn2)c(OC)cc1N1CCC(N2CCN(C3COC3)CC2)CC1 [Example 200, N-(4-methoxy-5-((6-((R)-3-(naphthalene-2-yl)isoxazolidine-2-yl)pyrimidine-4-yl)amino)-2-(4-(4-(oxetane-3-yl)piperazine-1-yl)piperidine-1-yl)phenyl)acrylamide] | B (50 nM ≤ GI50 < 500 nM)
C=CC(=O)Nc1cc(Nc2cc(N3OCC[C@@H]3c3ccc(Cl)c(Cl)c3)ncn2)c(OC)cc1N1CCC(N2C[C@H]3C[C@@H]2CO3)CC1 [compound 690] | A (GI50 < 50 nM)
C=CC(=O)Nc1cc(Nc2cc(N3OCC[C@@H]3c3ccc(F)cc3F)ncn2)c(OC)cc1N1CCN(C(C)=O)CC1 [compound 343] | A (GI50 < 50 nM)
C=CC(=O)Nc1cc(Nc2cc(N3OCC[C@@H]3c3cccc(Cl)c3)ncn2)c(OC)cc1N1CCC(N2CCN(C)CC2)CC1 [compound 416] | A (GI50 < 50 nM)
C=CC(=O)Nc1cc(Nc2cc(N3OCC[C@@H]3Cc3cc(F)cc(F)c3)ncn2)c(OC)cc1N1CCC(N2C[C@@H]3C[C@H]2CO3)CC1 [compound 1035, N-(2-(4-((1S,4S)-2-oxa-5-azabicyclo [2.2.1]heptane-5-yl)piperidine-1-yl)-5-((6-((S)-3-(3,5-difluorobenzyl)isoxazolidine-2-yl)pyrimidine-4-yl)amino)-4-methoxyphenyl) acrylamide] | A (GI50 < 50 nM)
C=CC(=O)Nc1cc(Nc2cc(N3OCC[C@@H]3c3cccc(Cl)c3F)ncn2)c(OC)cc1N1CCC(N2CCOCC2)CC1 [compound 788, N-(5-((6-((R)-3-(3-chloro-2-fluorophenyl)isoxazolidine-2-yl)pyrimidine-4-yl)amino)-4-methoxy-2-(4-morpholinopiperidine-1-yl)phenyl)acrylamide] | A (GI50 < 50 nM)
C=CC(=O)Nc1cc(Nc2cc(N3OCC[C@@H]3c3ccc(F)c(Cl)c3F)ncn2)c(OC)cc1N1CCC(N2CCN(C(C)=O)CC2)CC1 [compound 636, N-(2-(4-(4-acetylpiperazine-1-yl)piperidine-1-yl)-5-((6-((R)-3-(3-chloro-2,4-difluorophenyl)isoxazolidine-2-yl)pyrimidine-4-yl)amino)-4-methoxyphenyl) acrylamide] | A (GI50 < 50 nM)
C=CC(=O)Nc1cc(Nc2cc(N3OCC[C@@H]3c3ccc(F)cc3F)ncn2)c(OC)cc1N1CCC(N2CCN(C3CC3)CC2)CC1 [Example 139, N-(2-(4-(4-cyclopropylpiperazine-1-yl)piperidine-1-yl)-5-((6-((R)-3-(2,4-difluorophenyl)isoxazolidine-2-yl)pyrimidine-4-yl)amino)-4-methoxyphenyl) acrylamide] | A (GI50 < 50 nM)
C=CC(=O)Nc1cc(Nc2cc(N3OCC[C@@H]3c3ccc(Cl)c(F)c3)ncn2)c(OC)cc1N1CCC(N2CCN(C3CCC3)CC2)CC1 [Example 71, N-(5-((6-((R)-3-(4-chloro-3-fluorophenyl)isoxazolidine-2-yl)pyrimidine-4-yl)amino)-2-(4-(4-cyclobutylpiperazine-1-yl)piperidine-1-yl)-4-methoxyphenyl) acrylamide] | A (GI50 < 50 nM)
C=CC(=O)Nc1cc(Nc2cc(N3OCC[C@@H]3c3cc(F)ccc3F)ncn2)c(OC)cc1N1CCN(C)CC1 [compound 818, N-(5-((6-((R)-3-(2,5-difluorophenyl)isoxazolidine-2-yl)pyrimidine-4-yl)amino)-4-methoxy-2-(4-methylpiperazine-1-yl)phenyl)acrylamide] | A (GI50 < 50 nM)
C=CC(=O)Nc1cc(Nc2cc(N3OCC[C@@H]3c3ccc(Cl)c(Cl)c3F)ncn2)c(OC)cc1N1CCC(N2CCN(C3CCC3)CC2)CC1 [Example 74, N-(2-(4-(4-cyclobutylpiperazine-1-yl)piperidine-1-yl)-5-((6-((R)-3-(3,4-dichloro-2-fluorophenyl)isoxazolidine-2-yl)pyrimidine-4-yl)amino)-4-methoxyphenyl) acrylamide] | B (50 nM ≤ GI50 < 500 nM)
C=CC(=O)Nc1cc(Nc2cc(N3OCC[C@@H]3c3ccc(C)nc3)ncn2)c(OC)cc1N1CCC(N2CCC(N3CCOCC3)CC2)CC1 [Example 235, N-(4-methoxy-5-((6-((R)-3-(6-methylpyridine-3-yl)isoxazolidine-2-yl)pyrimidine-4-yl)amino)-2-(4-morpholino-[1,4'-bipiperidine]-1'-yl)phenyl)acrylamide] | B (50 nM ≤ GI50 < 500 nM)
C=CC(=O)Nc1cc(Nc2cc(N3OCC[C@@H]3c3cccc(C#N)c3)ncn2)c(OC)cc1N1CCC(N2CC3CCC(C2)N3C2CC2)CC1 [Example 133, N-(5-((6-((R)-3-(3-cyanophenyl)isoxazolidine-2-yl)pyrimidine-4-yl)amino)-2-(4-(8-cyclopropyl-3,8-diazabicyclo[3.2.1]octan-3-yl)piperidine-1-yl)-4-methoxyphenyl) acrylamide] | B (50 nM ≤ GI50 < 500 nM)
C=CC(=O)Nc1cc(Nc2cc(N3OCC[C@@H]3c3ccc(F)c(F)c3F)ncn2)c(OC)cc1N1CCC(N2CCOCC2)CC1 [compound 621, N-(4-methoxy-2-(4-morpholinopiperidine-1-yl)-5-((6-((R)-3-(2,3,4-trifluorophenyl)isoxazolidine-2-yl)pyrimidine-4-yl)amino)phenyl)acrylamide] | A (GI50 < 50 nM)
